Converted amounts (≈) assume the structure as drawn. “And” between values parts separate entries of the source, which are not always exact repeats. Equal values may be shown once.

We go through 11 compounds from ChEMBL document CHEMBL3137440, “DNDi T. cruzi fenarimol series dataset from which preclinical candidate EPL-BS0967 was identified (see also related datasets: CHEMBL3137386 and CHEMBL2448688)”.

The subject of data set [1] is Trypanosoma cruzi. Nature of the data set: (§1) DNDI: Chagas in Vitro. The data set is classed as functional, organism-based, Tulahuen C4 (LacZ).
Data set [2] relates to Trypanosoma cruzi. The data set is described as §1. The data set is classed as functional, Tulahuen C4 (LacZ).
The nature of data set [3]: (§2) DNDI: Cytotoxicity against L-6 rat myoblasts from skeletal musclE. As to conditions: L6 rat skeletal muscle myoblasts, IC50.
For data set [4], the system named is Trypanosoma brucei rhodesiense. The data set can be described thus: DNDI: HAT in Vitro. The data set is classed as functional, organism-based. Conditions: ATCC 30027.
A short description of data set [5]: (§3) DNDI: Lipophilicity (gLogD) at pH 3. As to conditions: buffer. The data set is classed as physicochemical.
Data set [6] is described as follows: (§4) DNDI: Solubility in phosphate buffer at pH 6.5 determined by nephelometry. The format is physicochemical.
Data set [7] can be described thus: in vitro. As to conditions: human, microsomes.
Data set [8] in a line: in vitro. As to conditions: human, microsomes. The source holds these as a separate data set.
The nature of data set [9]: in vitro. As to conditions: human, microsomes. This is another data set of the same source.
Data set [10] has as its target T1, Cytochrome P450 3A4 (Homo sapiens, UniProt P08684). Nature of the data set: DNDI: CYP Inhibition. The data set is classed as ADME.
In data set [11] the test system is Leishmania donovani. The data set can be described thus: DNDI: Inhibition of formation of Leishmania donovani. Details: concentration or dose not given beside the values. The format is functional, MHOM/ET/67/L82.
The nature of data set [12]: as §3. Conditions: buffer.
Data set [13] is described as follows: DNDI: Metabolism. The data set is classed as ADME, Microsome. Conditions: rat, microsomes; for hepatic extraction ratio: read-out: EH.
Data set [14] in a line: DNDI: Solubility in 0.01M HCl at pH 2 determined by nephelometry.
In data set [15] the test system is L6. The description is as §2.
Data set [16] in a line: DNDI: Lipophilicity (gLogD) at pH 7.4. As to conditions: buffer.
Data set [17] in a line: as §4.
The target in data set [18] is T1, Cytochrome P450 3A4.
Data set [19] concerns the target T1, Cytochrome P450 3A4. The source holds these as a separate data set.
The conditions of data set [20]: human, microsomes.
The conditions of data set [21]: human, microsomes. The source holds these as a separate data set.
For data set [22] the following is noted: human, microsomes. This is another data set of the same source.
Where [23] appears, read: Trypanosoma cruzi, Tulahuen C4 (LacZ).

T1 sequence (P08684 whole entry): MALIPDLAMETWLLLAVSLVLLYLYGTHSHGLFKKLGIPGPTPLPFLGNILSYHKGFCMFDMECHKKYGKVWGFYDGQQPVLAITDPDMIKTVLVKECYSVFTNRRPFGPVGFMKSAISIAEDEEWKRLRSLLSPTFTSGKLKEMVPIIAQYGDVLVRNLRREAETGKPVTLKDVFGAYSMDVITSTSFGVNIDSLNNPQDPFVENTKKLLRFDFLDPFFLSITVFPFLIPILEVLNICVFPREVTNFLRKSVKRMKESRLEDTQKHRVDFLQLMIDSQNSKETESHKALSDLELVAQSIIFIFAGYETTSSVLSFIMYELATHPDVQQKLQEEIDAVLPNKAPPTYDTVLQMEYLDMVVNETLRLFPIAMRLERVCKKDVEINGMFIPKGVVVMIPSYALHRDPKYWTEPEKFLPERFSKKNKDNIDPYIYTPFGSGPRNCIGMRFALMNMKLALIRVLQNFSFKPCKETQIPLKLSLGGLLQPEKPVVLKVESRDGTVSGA

Regarding `FC(F)(F)c1ccc(N(c2cncnc2)C2CCN(c3ccc(C(F)(F)F)cn3)CC2)cc1`, the IC50 is 0.0054 µM and 0.005 µM in data set [1]; 0.00365 µM in data set [1] (setting [23]); 93.2 µM in [3]; over 10 µM in [4]. Also, the IC90 in data set [2] came out at 0.01 µM; in [2] (setting [23]), 0.00915 µM. Further, in data set [5], the chromatographic logD came out at 5. The compound further showed a kinetic solubility in [6] of under 1.6 µg/mL. Further, the half-life in data set [7] came to 56 min. Moreover, in data set [8], the hepatic extraction ratio worked out at 0.63. Besides, the microsomal CLint in data set [9] is 30.9 µL/min/mg.

Turning to `CC(C)(C)CC(=O)N1CCC(N(c2ccc(Cl)cc2)c2cccnc2)CC1`, the 50% inhibitory concentration (IC50) in data set [1] (setting [23]) was found to be 0.000595 µM; in data set [10], 0.8 µM. In [2] (setting [23]), this compound showed a concentration for an effect of 90% (IC90) of 0.00193 µM. Besides, the “% inhibition” value in data set [11] is reported as 42.9%. This compound gave a chromatographic logD in data set [12] (pH 3) of 2.4. In addition, the half-life is 4.9 min in data set [13] and 9.9 min in [7]. Besides, the microsomal CLint amounted to 357 µL/min/mg in [13] and 175 µL/min/mg in data set [9]. The hepatic extraction ratio was found to be 0.92 in data set [13] and 0.91 in data set [8]. Also, in [14], the solubility (kinetic) is over 100 µg/mL.

Regarding `Cc1noc(C)c1C(=O)N1CCC(N(c2ccc(C(F)(F)F)cc2)c2cccnc2)CC1`, the IC50 in data set [1] was 0.008 µM and 0.00304 µM; in data set [3], over 100 µM; in data set [15] it was 78.5 µM; in data set [18] it was 2.1 µM. The IC90 in data set [2] is 0.047 µM and 0.00838 µM. For the same compound, the chromatographic logD amounted to 2.4 in data set [12] (pH 3) and 3.5 in [16] (pH 7.4). For the same compound, the half-life in [13] stood at 21.8 min; in data set [7] it was 11.8 min. Besides, the intrinsic metabolic clearance (microsomal CLint) in [13] is 79.3 µL/min/mg; in [9], 147 µL/min/mg. In addition, the hepatic extraction ratio in data set [13] is 0.72; in [8], 0.89. The kinetic solubility in data set [14] was over 100 µg/mL; in [17], 12.5 µg/mL (≈ 28.1 µM).

Regarding `O=C(c1ccc(F)cc1)N1CCC(N(c2ccc(C(F)(F)F)cc2)c2cccnc2)CC1`, the IC50 in data set [1] was 0.00783 µM; in data set [1] (setting [23]) it was 0.015 µM; in data set [3] it was 54.3 µM; in data set [15] it was 44.5 µM; in data set [18], 4.4 µM. Also, the IC90 in data set [2] was 0.0207 µM; in data set [2] (setting [23]), 0.028 µM. The results for the chromatographic logD in data set [12] (pH 3) and in data set [16] (pH 7.4) were 3.1 and 4.1, respectively. In addition, the values for the half-life in data set [13] and in [7] were 16.6 min and 13.2 min, respectively. The intrinsic metabolic clearance (microsomal CLint) in data set [13] amounted to 105 µL/min/mg; in data set [9], 131 µL/min/mg. For the same compound, the hepatic extraction ratio in [13] amounted to 0.77; in data set [8], 0.88. In addition, the kinetic solubility in data set [14] is over 100 µg/mL; in [17] it was 3.1 µg/mL (≈ 6.99 µM).

On to `CS(=O)(=O)N1CCC(N(c2ccc(Cl)cc2)c2cccnc2)CC1`, for which the IC50 in data set [1] (setting [23]) came out at 0.094 µM; in data set [10] it was 2.6 µM; in data set [3] it was 62.5 µM. Also, the IC90 in data set [2] (setting [23]) was found to be 0.28 µM. Further, the chromatographic logD in data set [12] (pH 3) came to 1.6; in data set [16] (pH 7.4) it was 3.1. The values for the half-life in data set [13] and in data set [7] were 27.7 min and 35.5 min, respectively. Moreover, the microsomal CLint was found to be 62.6 µL/min/mg in data set [13] and 48.8 µL/min/mg in data set [9]. For the same compound, the hepatic extraction ratio in data set [13] came to 0.67; in data set [8], 0.73. The solubility (kinetic) is over 100 µg/mL in data set [14] and 12.5 µg/mL (≈ 34.2 µM) in [17].

For `O=C(C1CC1)N1CCC(N(c2ccc(Cl)cc2)c2cccnc2)CC1`, the IC50 stood at 0.00582 µM in data set [1] (setting [23]), 1.5 µM in [10] and 78.2 µM in data set [3]. For the same compound, the IC90 in [2] (setting [23]) was determined as 0.0134 µM. The chromatographic logD in data set [12] (pH 3) was 1.6; in data set [16] (pH 7.4), 3.4. Besides, the values for the half-life in [13] and in data set [7] were 10.1 min and 24 min, respectively. The microsomal CLint came to 171 µL/min/mg in data set [13] and 72.3 µL/min/mg in data set [9]. The hepatic extraction ratio came out at 0.85 in [13] and 0.8 in data set [8]. In addition, the solubility (kinetic) in data set [14] was over 100 µg/mL; in data set [17], 12.5 µg/mL (≈ 35.1 µM).

Consider `O=C(c1ccccc1)N1CCC(N(c2ccc(Cl)cc2)c2cccnc2)CC1`, for which the IC50 in [1] (setting [23]) was found to be 0.016 µM; in data set [10] it was 1.9 µM; in data set [3], 52.5 µM. The compound further had an IC90 in data set [2] (setting [23]) of 0.0617 µM. For the same compound, the chromatographic logD in [12] (pH 3) was found to be 2.1; in data set [16] (pH 7.4) it was 3.8. For the same compound, the figures for the half-life in [13] and in data set [7] were 7.5 min and 12.5 min, respectively. Further, the microsomal CLint was determined as 231 µL/min/mg in data set [13] and 139 µL/min/mg in data set [9]. The hepatic extraction ratio in data set [13] was determined as 0.88; in data set [8], 0.89. The solubility (kinetic) in data set [14] is over 100 µg/mL; in data set [17], 6.3 µg/mL (≈ 16.1 µM).

`CC(O)C(C)N1CCC(N(c2ccc(C(F)(F)F)cc2)c2cccnc2)CC1` (stereo not given): the IC50 in data set [1] is 0.424 µM and 0.075 µM; in [3], 64.8 µM; in data set [15], 59.6 µM; in data set [19], over 20 µM. Also, the IC90 in data set [2] was 0.96 µM and > 0.1 µM. Also, the chromatographic logD in [12] (pH 3, logD) worked out at 1.3; in [16] (pH 7.4, logD), 2.9. Also, the kinetic solubility in [14] was over 100 µg/mL; in data set [17], 25 µg/mL (≈ 63.5 µM). The “t (1 / 2)” value in data set [20] was found to be 55.4 min. Further, the EH in [21] was 0.57. Besides, in data set [22], the CLint was 31.3 µL/min/mg. Moreover, in data set [7] (t (1 / 2)), the half-life is 72.9 min. In addition, the hepatic extraction ratio in data set [8] (EH) worked out at 0.64. Moreover, the microsomal CLint in data set [9] (CLint) came out at 23.8 µL/min/mg.

As for `FC(F)(F)c1ccc(N(c2cncnc2)C2CCN(c3ccc(C(F)(F)F)nc3)CC2)cc1`, the results for the IC50 in data set [1], in data set [1] (setting [23]) and in data set [4] were 0.0159 µM, 0.01 µM and over 10 µM, respectively. In addition, in [2], the IC90 was 0.021 µM and > 0.1 µM.

On to `CC(C)(F)CN1CCC(N(c2ccc(C(F)(F)F)cc2)c2cccnc2)CC1`, for which the IC50 in [1] (setting [23]) is 0.015 µM; in [3], 64.9 µM; in [4], over 10 µM. In addition, it took 0.025 µM to reach the 90% level in data set [2] (setting [23]) (IC90). In addition, the chromatographic logD in [12] (pH 3, logD) stood at 1.8; in data set [16] (pH 7.4, logD) it was 5.1. The solubility (kinetic) in data set [14] is over 100 µg/mL; in [17], 3.1 µg/mL (≈ 7.84 µM). This compound also yielded a half-life in data set [7] (t (1 / 2)) of 12.6 min. In data set [9] (CLint), this compound came in with a microsomal CLint of 138 µL/min/mg.

Regarding `FC(F)(F)c1ccc(N(c2cccnc2)C2CCN(C(c3ccccc3)C(F)(F)F)CC2)cc1` (stereo not given), the IC50 in data set [1] was 5.13 µM; in data set [1] (setting [23]) it was 5.13 µM; in data set [3] it was over 100 µM; in data set [4], over 10 µM; in data set [19], over 20 µM. Further, the IC90 in data set [2] and in data set [2] (setting [23]) was 8.14 µM in each case. In addition, the chromatographic logD in [12] (pH 3, logD) is over 5.3; in data set [16] (pH 7.4, logD), over 5.3. The solubility (kinetic) in data set [14] is over 100 µg/mL; in data set [17], 1.6 µg/mL (≈ 3.34 µM). The same compound yielded a half-life in data set [7] (t (1 / 2)) of 62.6 min. Further, the hepatic extraction ratio in [8] (EH) was found to be 0.61. Also, the microsomal CLint in data set [9] (CLint) worked out at 27.7 µL/min/mg.

As usually defined, the IC50 is the midpoint of a concentration-inhibition curve. By IC90 is commonly meant the concentration at which the effect reaches the 90% level. The term chromatographic logD denotes lipophilicity estimated from chromatographic retention. As usually defined, the solubility (kinetic) is the concentration staying in solution when a stock, usually in DMSO, is diluted into the medium. As usually defined, the half-life is the time in which the quantity being followed falls by half. As a reminder, the microsomal CLint is a measure of how fast metabolising enzymes remove a compound, apart from limits set by blood flow. The term % inhibition denotes the share of the control response that was lost under treatment.
